From patent publication US4914127A, “3-Demethylmevalonic acid derivatives, a process for their preparation pharmaceutical products based on these compounds, their use and intermediates” (Hoechst Aktiengesellschaft, priority 1985, dated 1990)
Like-named read-outs stand apart in the source and are kept apart here.

Assays:
[1] = in human trials; cited from earlier work
[2] = in the rat; cited from earlier work
HMG-CoA reductase = target: T1, HMG-CoA reductase (Rattus norvegicus, UniProt P51639); assay: HMG-CoA reductase activity in solubilized enzyme preparations from liver microsomes of rats; format: biochemical; details: 14C-HMG-CoA substrate, mean from 3 parallel samples, read-out: IC50 [M], inhibition of HMG-CoA reductase
T1 construct: solubilized enzyme preparations from liver microsomes of rats; from tissue; host or cells: liver microsomes of cholestyramine-induced rats
T1 sequence (P51639 1-887): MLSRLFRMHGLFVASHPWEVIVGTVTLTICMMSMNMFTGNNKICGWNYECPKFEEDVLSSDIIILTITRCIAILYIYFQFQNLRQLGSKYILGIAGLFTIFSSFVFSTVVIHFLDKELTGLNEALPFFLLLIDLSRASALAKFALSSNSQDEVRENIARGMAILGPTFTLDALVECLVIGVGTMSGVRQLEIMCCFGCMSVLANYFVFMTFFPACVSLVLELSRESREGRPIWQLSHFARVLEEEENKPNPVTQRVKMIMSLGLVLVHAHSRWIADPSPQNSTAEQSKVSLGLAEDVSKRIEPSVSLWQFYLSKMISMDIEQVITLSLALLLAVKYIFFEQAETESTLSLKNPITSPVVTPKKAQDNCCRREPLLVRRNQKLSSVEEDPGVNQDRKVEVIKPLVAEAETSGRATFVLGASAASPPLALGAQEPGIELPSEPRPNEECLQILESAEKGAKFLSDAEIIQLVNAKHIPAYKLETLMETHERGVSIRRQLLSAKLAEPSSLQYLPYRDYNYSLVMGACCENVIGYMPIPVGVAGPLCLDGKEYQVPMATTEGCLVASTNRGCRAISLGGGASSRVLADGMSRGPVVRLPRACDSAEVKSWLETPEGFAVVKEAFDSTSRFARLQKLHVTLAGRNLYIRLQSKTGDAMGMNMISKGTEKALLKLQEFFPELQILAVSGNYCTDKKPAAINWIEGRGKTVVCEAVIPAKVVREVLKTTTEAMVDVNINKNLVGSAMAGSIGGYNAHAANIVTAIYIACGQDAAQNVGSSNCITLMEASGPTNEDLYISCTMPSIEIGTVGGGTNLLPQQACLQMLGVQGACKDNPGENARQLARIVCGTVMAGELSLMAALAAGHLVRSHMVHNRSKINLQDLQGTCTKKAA
Method: 1. HMG-CoA reductase activity in enzyme preparations
The HMG-CoA reductase activity was measured on solubilized enzyme preparations from liver microsomes of rats which, after the day/night rhythm had been changed, were induced with cholestyramine (®Cuemid). The substrate used was (S,R) ^14 C-HMG-CoA, and the concentration of NADPH was maintained during the incubation by a regenerating system. ^14 C-Mevalonate was removed from the substrate and other products (for example ^14 C-HMG) by column elution, the elution profile for each individual sample being determined. Constant inclusion of ^3 H-mevalonate was dispensed with because the determination was of the relative inhibitory effect. In each series of tests, the control containing no enzyme, and the normal mixture containing enzyme (=100%) and those with added products, final concentration 10^-5 to 10^-9 M, were treated together. Each individual figure was formed as the mean from 3 parallel samples. The signficance of the differences in the means between samples containing no product and those containing product was assessed by the t test.
Using the method described above, the following figures for the inhibition of HMG-CoA reductase were determined for the compounds according to the invention, for example: […]

[3] = target: T2, HMG-CoA reductase (in HEP-G2 cells) (Homo sapiens, UniProt P04035); assay: Suppression or inhibition of HMG-CoA reductase in cell cultures (HEP-G2 cells; method described for fibroblasts, L cells); format: cell-based
T2 construct: endogenous in cells; host or cells: HEP-G2 cells
T2 sequence (P04035 1-888): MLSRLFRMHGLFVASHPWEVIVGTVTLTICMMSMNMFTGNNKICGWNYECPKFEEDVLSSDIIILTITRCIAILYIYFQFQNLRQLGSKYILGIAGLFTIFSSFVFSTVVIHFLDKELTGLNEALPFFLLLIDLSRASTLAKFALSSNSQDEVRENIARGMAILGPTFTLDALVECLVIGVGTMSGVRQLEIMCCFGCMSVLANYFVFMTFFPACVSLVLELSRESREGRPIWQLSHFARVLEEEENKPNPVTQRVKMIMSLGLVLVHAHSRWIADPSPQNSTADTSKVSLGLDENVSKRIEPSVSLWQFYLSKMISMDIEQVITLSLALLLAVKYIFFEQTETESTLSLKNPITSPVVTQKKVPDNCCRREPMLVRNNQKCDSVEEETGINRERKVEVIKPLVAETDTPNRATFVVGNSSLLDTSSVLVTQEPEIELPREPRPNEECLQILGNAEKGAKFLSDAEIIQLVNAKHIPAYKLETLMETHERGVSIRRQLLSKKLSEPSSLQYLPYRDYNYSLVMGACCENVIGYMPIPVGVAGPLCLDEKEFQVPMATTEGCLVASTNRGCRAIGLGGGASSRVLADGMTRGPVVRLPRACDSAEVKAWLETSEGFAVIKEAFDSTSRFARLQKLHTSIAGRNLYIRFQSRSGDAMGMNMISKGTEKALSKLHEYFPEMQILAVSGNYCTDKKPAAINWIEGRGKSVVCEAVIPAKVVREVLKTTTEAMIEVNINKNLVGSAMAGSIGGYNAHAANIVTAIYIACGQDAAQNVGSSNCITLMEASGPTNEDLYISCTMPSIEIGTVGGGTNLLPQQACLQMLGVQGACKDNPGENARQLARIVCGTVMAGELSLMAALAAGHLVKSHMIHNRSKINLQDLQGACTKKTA
Method: 2. Suppression or inhibition of HMG-CoA reductase in cell cultures of fibroblasts.
Monolayers of fibroblasts (L cells) in lipoprotein-free nutrient medium were incubated with appropriate concentrations of test substances for a specified period (for example 3 hours) and then the HMG-CoA reductase activity of the cells was determined by modification of the method of Chang et al. (J. Biol. Chem. 256, 6174 (1981)). For this purpose, the cell extracts were incubated with D,L-[^3 H]-HMG-CoA, and the product [^3 H]-mevalonate formed from the cells by the action of the HMG-CoA reductase activity present was, after cyclization to [^3 H]-mevalonolactone, separated from the starting material by thin-layer chromatography and, by use of an internal standard of [^14 C]-mevalonate, the amount of [^3 H]-mevalonate formed in unit time was determined and related to the amount of cellular protein.

[4] = test system: 3-hydroxy-3-methylglutaryl-coenzyme-A reductase (HMG-CoA reductase); details: in words; cited from earlier work

SMILES | IC50 (HMG-CoA reductase) [M] | IC50 [3] [nM] | further results
CC(O)(CC(=O)O)CC(=O)O [3-Hydroxy-3-methylglutaric acid] | – | – | cholesterol-lowering action [1]: significant cholesterol-lowering action; cholesterol-lowering action [2]: significant cholesterol-lowering action
O=C1C[C@H](O)C[C@@H](/C=C/c2c(Cl)cccc2Cc2ccc(Cl)cc2)O1 [16 ab] | 2.3e-07 | 210000 | –
O=C1C[C@H](O)C[C@@H](/C=C/c2c(Cl)cccc2CC2CCCCC2)O1 [16 ac] | 7.1e-08 | 3200 | –
CC[C@H](C)C(=O)O[C@H]1CCC=C2C=C[C@H](C)[C@H](CC[C@@H]3C[C@@H](O)CC(=O)O3)[C@H]21 [Compactin] | – | – | inhibition of HMG-CoA reductase [4]: inhibition

Second part, led by results:

IC50 (HMG-CoA reductase) [M] | IC50 [3] [nM] | SMILES | further results
9e-07 | 500000 | O=C1C[C@H](O)C[C@@H](/C=C/c2ccccc2CCc2ccc(F)cc2)O1 [16 g] | –
9e-08 | 380000 | O=C1C[C@H](O)C[C@@H](/C=C/c2ccccc2CC2CCCCC2)O1 [16 j] | –
8e-07 | – | O=C1C[C@H](O)C[C@@H](/C=C/c2ccccc2Cc2ccc(Cl)cc2)O1 [16 l] | –
6.5e-07 | 200000 | Cc1cccc(CCC2CCCCC2)c1/C=C/[C@@H]1C[C@@H](O)CC(=O)O1 [16 u] | –
2.8e-07 | – | Cc1cccc(Cc2ccc(Cl)cc2)c1/C=C/[C@@H]1C[C@@H](O)CC(=O)O1 [16 y] | –
1.9e-08 | 1900 | O=C1C[C@H](O)C[C@@H](/C=C/c2c(Cl)cc(Cl)cc2CC2CCCCC2)O1 [16 z] | –
